Data from ChEMBL document CHEMBL2094260, “Malaria Box Tuberculosis Screening Data”.

Each compound was assayed on Mycobacterium tuberculosis (assay: MMV: Screen against Mtb, single point, replicating, at 25uM).
Format: functional

Structure (SMILES) | inhibition at 25 µM
CCOc1ccc(-n2cc(-c3ccccc3)c3c(SCc4cc(C)ccc4C)ncnc32)cc1 | -0.392%
CCCc1c(C)nc2ccccc2c1O | 15.9%
COc1ccc(C2c3ccc4ccccc4c3Oc3ncn(CCCn4ccnc4)c(=N)c32)cc1OC (stereo not given) | 46.8%
O=C(Nc1ccc(Cl)cc1)N1CCN(c2ccc3nncn3n2)CC1 | 12.8%
Cc1ccc(N2C(=O)C3C(C2=O)C2(c4ccccc4)C(=O)C3(c3ccccc3)C(c3ccccc3)=C2c2ccccc2)cc1 (stereo not given) | 9.93%
CCOc1ccccc1CNC(=O)C1c2ccccc2C(=O)N(CC(C)C)C1c1cccs1 (stereo not given) | 43.5%
COc1ccc(CN2CCN(Cc3ccccc3)CC2)c(O)c1 | 0.392%
COc1cccc(C2(C)Nc3ccccc3-c3nc4ccccc4n32)c1 (stereo not given) | 14.9%
COc1ccc2nc(N)nc(C)c2c1 | 5.53%
COc1ccc(-c2nonc2NC(=O)c2cccc(C)c2)cc1OC | 3.1%
CC1=C(CC(=O)c2cccc([N+](=O)[O-])c2)C(=O)c2ccccc2C1=O | 40.5%
CCN(CC)c1cc(C)c2cc(NC(=O)c3cccc(OC)c3)ccc2n1 | 18.7%
CC1CC(C)CN(C(=O)c2ccc(Cl)cc2Cl)C1 (stereo not given) | 14.8%
COc1ccc(C(=O)NC(c2ccc(Cl)cc2Cl)c2cc(Cl)c3cccnc3c2O)cc1 (stereo not given) | 3.06%
COc1ccc2nc(C)cc(Nc3ccc(Cl)cc3)c2c1 | 41.2%
O=C(NCc1ccco1)C1CCN(S(=O)(=O)c2ccc(Br)cc2)CC1 | 13%
Cc1cc(Nc2ccc3ccccc3c2)n2ncnc2n1 | -2.52%
O=C(NC1CCN(Cc2ccccc2)CC1)c1cc(C(=O)NC2CCN(Cc3ccccc3)CC2)cc(C(=O)NC2CCN(Cc3ccccc3)CC2)c1 | 7.92%
CCC(C)NCC(O)(c1ccc(Cl)cc1)c1ccc(Cl)cc1 (stereo not given) | 17.4%
OC(CNC1CCCC1)Cn1c2ccccc2c2ccccc21 (stereo not given) | 27.5%

Structure (SMILES) | inhibition at 25 µM
CCOc1ccc(-c2nc(NC(=O)c3cccc(S(C)(=O)=O)c3)sc2C)cc1 | 54.3%
CCOc1c(Br)cc(C2C(C(=O)OC)=CN(C)C=C2C(=O)OC)cc1OC | 7.76%
CCOC(=O)c1cnc2ccc(CC)cc2c1O | 12.5%
COc1ccc(-c2nc3cc(Cc4ccc5[nH]c(-c6ccc(OC)cc6)nc5c4)ccc3[nH]2)cc1 | 41.7%
CC1CN(C(=O)c2sc3ccccc3c2Cl)CC(C)O1 (stereo not given) | 15.5%
c1ccc(-c2ccc(-c3nc4ccccc4[nH]3)cc2)cc1 | 20.6%
CCCCc1ccc(NS(=O)(=O)c2cc3c4c(c2)CCN4C(=O)CC3)cc1 | 7.2%
COc1cccc(Nc2nc(N)c3ccccc3n2)c1 | 6.04%
COc1ccc(C(=O)C2CC2c2ccc(Cl)cc2)cc1 (stereo not given) | 17.5%
CC(O)(c1ccc(Cl)cc1)C(CN1CCCCC1)c1ccccc1 (stereo not given) | 8.72%
CCCN(CCC)CC(O)COc1ccccc1C(=O)Nc1ccccc1 (stereo not given) | 20.9%
O=C(NC1CCN(Cc2ccccc2)CC1)c1cc(-c2cccnc2)nc2ccc(Cl)cc12 | 14.3%
COc1cccc(C(=O)Nc2ccc(-c3nc4ccccc4[nH]3)cc2)c1 | 7.2%
Oc1ccccc1CN1CCC2(CCCN(Cc3ccccc3F)C2)C1 (stereo not given) | 50.6%
Cc1ccc(-c2nc3ccccc3o2)cc1NCc1cc(Cc2ccccc2)ccc1O | 1.18%
COc1cccc(O)c1CN1CCC2(CCCN(Cc3ccc(F)cc3)C2)C1 (stereo not given) | 18%
CCOC(=O)C1=C(C)N=c2sc(=Cc3ccccc3O)c(=O)n2C1c1ccc(OC)c2ccccc12 (stereo not given) | 4%
COCCn1c(C)nc2ccccc2c1=O | 6.59%
C=CC12CCN(CC1)C(C(O)c1ccnc3ccc(OC)cc13)C2 (stereo not given) | 27.2%
CCOC(=O)c1cn(CC)c2cc(N3CCCCC3)c(F)cc2c1=O | 45%

What follows are compounds tested on Mycobacterium tuberculosis (assay: MMV: Screen against Mtb, single point, non replicating, at 25uM).
Format: functional

Structure (SMILES) | inhibition at 25 µM
CCOc1ccc(-n2cc(-c3ccccc3)c3c(SCc4cc(C)ccc4C)ncnc32)cc1 | 21.9%
CCCc1c(C)nc2ccccc2c1O | 9.94%
COc1ccc(C2c3ccc4ccccc4c3Oc3ncn(CCCn4ccnc4)c(=N)c32)cc1OC (stereo not given) | 11.1%
O=C(Nc1ccc(Cl)cc1)N1CCN(c2ccc3nncn3n2)CC1 | -3.33%
Cc1ccc(N2C(=O)C3C(C2=O)C2(c4ccccc4)C(=O)C3(c3ccccc3)C(c3ccccc3)=C2c2ccccc2)cc1 (stereo not given) | 4.88%
CCOc1ccccc1CNC(=O)C1c2ccccc2C(=O)N(CC(C)C)C1c1cccs1 (stereo not given) | 10.8%
COc1ccc(CN2CCN(Cc3ccccc3)CC2)c(O)c1 | -5.78%
COc1cccc(C2(C)Nc3ccccc3-c3nc4ccccc4n32)c1 (stereo not given) | 8.19%
COc1ccc2nc(N)nc(C)c2c1 | -10.5%
COc1ccc(-c2nonc2NC(=O)c2cccc(C)c2)cc1OC | -4.72%
CC1=C(CC(=O)c2cccc([N+](=O)[O-])c2)C(=O)c2ccccc2C1=O | 20.1%
CCN(CC)c1cc(C)c2cc(NC(=O)c3cccc(OC)c3)ccc2n1 | 19.7%
CC1CC(C)CN(C(=O)c2ccc(Cl)cc2Cl)C1 (stereo not given) | 9.59%
COc1ccc(C(=O)NC(c2ccc(Cl)cc2Cl)c2cc(Cl)c3cccnc3c2O)cc1 (stereo not given) | -4.19%
COc1ccc2nc(C)cc(Nc3ccc(Cl)cc3)c2c1 | 7.32%
O=C(NCc1ccco1)C1CCN(S(=O)(=O)c2ccc(Br)cc2)CC1 | 10.5%
Cc1cc(Nc2ccc3ccccc3c2)n2ncnc2n1 | 19.9%
O=C(NC1CCN(Cc2ccccc2)CC1)c1cc(C(=O)NC2CCN(Cc3ccccc3)CC2)cc(C(=O)NC2CCN(Cc3ccccc3)CC2)c1 | 3.44%
CCC(C)NCC(O)(c1ccc(Cl)cc1)c1ccc(Cl)cc1 (stereo not given) | 10.6%
OC(CNC1CCCC1)Cn1c2ccccc2c2ccccc21 (stereo not given) | 13.1%

Structure (SMILES) | inhibition at 25 µM
CCOc1ccc(-c2nc(NC(=O)c3cccc(S(C)(=O)=O)c3)sc2C)cc1 | 11.7%
CCOc1c(Br)cc(C2C(C(=O)OC)=CN(C)C=C2C(=O)OC)cc1OC | 14.1%
CCOC(=O)c1cnc2ccc(CC)cc2c1O | 7.14%
COc1ccc(-c2nc3cc(Cc4ccc5[nH]c(-c6ccc(OC)cc6)nc5c4)ccc3[nH]2)cc1 | 29.3%
CC1CN(C(=O)c2sc3ccccc3c2Cl)CC(C)O1 (stereo not given) | 22.9%
c1ccc(-c2ccc(-c3nc4ccccc4[nH]3)cc2)cc1 | 0.513%
CCCCc1ccc(NS(=O)(=O)c2cc3c4c(c2)CCN4C(=O)CC3)cc1 | -2.45%
COc1cccc(Nc2nc(N)c3ccccc3n2)c1 | 11.4%
COc1ccc(C(=O)C2CC2c2ccc(Cl)cc2)cc1 (stereo not given) | -5.07%
CC(O)(c1ccc(Cl)cc1)C(CN1CCCCC1)c1ccccc1 (stereo not given) | 11.2%
CCCN(CCC)CC(O)COc1ccccc1C(=O)Nc1ccccc1 (stereo not given) | 17.1%
O=C(NC1CCN(Cc2ccccc2)CC1)c1cc(-c2cccnc2)nc2ccc(Cl)cc12 | 18%
COc1cccc(C(=O)Nc2ccc(-c3nc4ccccc4[nH]3)cc2)c1 | 0.862%
Oc1ccccc1CN1CCC2(CCCN(Cc3ccccc3F)C2)C1 (stereo not given) | 9.59%
Cc1ccc(-c2nc3ccccc3o2)cc1NCc1cc(Cc2ccccc2)ccc1O | 10.4%
COc1cccc(O)c1CN1CCC2(CCCN(Cc3ccc(F)cc3)C2)C1 (stereo not given) | 16.4%
CCOC(=O)C1=C(C)N=c2sc(=Cc3ccccc3O)c(=O)n2C1c1ccc(OC)c2ccccc12 (stereo not given) | 24.4%
COCCn1c(C)nc2ccccc2c1=O | 13.6%
C=CC12CCN(CC1)C(C(O)c1ccnc3ccc(OC)cc13)C2 (stereo not given) | 18.8%
CCOC(=O)c1cn(CC)c2cc(N3CCCCC3)c(F)cc2c1=O | 6.27%
